In patent US11312723B2, “Pyranopyrazole and pyrazolopyridine immunomodulators for treatment of autoimmune diseases” (The Rockefeller University, priority 2017, dated 2022) one finds IC50 data, which are given here for 20 compounds.

This assay deals with Human FXIIa (Homo sapiens (Human), UniProt P00748). In words: Factor XIIa (FXIIa) inhibitory activity, chromogenic substrate (Pefachrome XIIa) cleavage. It is filed as biochemical. Conditions: 10 min pre-incubation, Pefachrome XIIa 400 μM. The method, then: Factor XIIa (FXIIa) Inhibitory Activity:
In a 96-well clear bottom plate, 80 μl of assay buffer was added to each well. Assay buffer consists of 0.5× Hank's Balanced Salt Solution (Invitrogen), buffered with 25 mM HEPES pH 7.4 (Invitrogen) and 0.5× Tris-buffered saline with Tween-20 0.05% (Santa Cruz Biotechnology). Test compounds were first dissolved in DMSO (Sigma) and then 4 μl were added to test wells containing assay buffer. Serial dilutions using an automated multi-channel pipette were used to generate a concentration range of approximately 1-100 μM. Human FXIIa (Enzyme Research Labs) was diluted in assay buffer to a final concentration of 12.5 nM. 80 μl of this enzyme solution was added to the assay wells. The enzyme/compound mixtures were incubated for 10 minutes at room temperature. Chromogenic substrate (Pefachrome XIIa; Enzyme Research Labs) was added to assay wells at a final concentration of 400 μM. The assay plate was spun for 1 minute at 1500 g and then read at 37° C. in a SpectraMax M2 plate reader (λ=405 nm). Activity was quantified as the rate of change in absorbance, which corresponds to the rate of substrate cleavage. IC50 values were determined as the concentration of inhibitor that produced 50% of the rate of change of control wells without any inhibitor. For compounds with activity <1 μM, the assay was repeated with a lower concentration range, typically from 10-1000 nM.

Sequence of Human FXIIa (P00748 373-615): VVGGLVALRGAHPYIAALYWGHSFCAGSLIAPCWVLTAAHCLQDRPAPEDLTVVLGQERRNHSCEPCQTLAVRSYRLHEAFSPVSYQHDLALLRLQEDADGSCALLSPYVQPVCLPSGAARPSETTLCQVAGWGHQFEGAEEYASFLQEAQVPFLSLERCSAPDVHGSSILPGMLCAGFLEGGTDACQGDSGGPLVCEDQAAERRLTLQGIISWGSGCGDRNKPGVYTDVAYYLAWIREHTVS
Sequence of Human FXIIa (P00748 20-372 partner): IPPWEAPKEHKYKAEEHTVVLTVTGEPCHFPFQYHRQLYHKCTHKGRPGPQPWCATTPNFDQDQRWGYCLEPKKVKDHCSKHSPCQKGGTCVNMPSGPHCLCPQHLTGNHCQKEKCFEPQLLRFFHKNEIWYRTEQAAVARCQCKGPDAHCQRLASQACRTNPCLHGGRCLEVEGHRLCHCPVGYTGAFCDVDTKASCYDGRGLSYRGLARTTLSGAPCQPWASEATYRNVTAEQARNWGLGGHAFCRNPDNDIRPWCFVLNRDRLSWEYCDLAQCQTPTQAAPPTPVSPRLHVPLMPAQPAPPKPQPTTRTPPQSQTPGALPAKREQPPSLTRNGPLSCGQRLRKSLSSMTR

As a reminder, the IC50 is the concentration needed to halve the response being measured. A low value points to higher potency. `CS(=O)(=O)N1CCc2c(nn(C(=O)C3CCNc4ccc(F)cc43)c2N)C1` (single isomer, unassigned) [Example 19, (R*)-(3-amino-6-(methylsulfonyl)-4,5,6,7-tetrahydropyrazolo[3,4-c]pyridin-2-yl)(6-fluoro-1,2,3,4-tetrahydroquinolin-4-yl)methanone]: the IC50 worked out at 11 µM. As for `CCc1ccc2c(c1)C(C(=O)n1nc3c(c1N)CCN(S(C)(=O)=O)C3)CCN2` (single isomer, unassigned) [Example 32, (S*)-(3-amino-6-(methylsulfonyl)-4,5,6,7-tetrahydropyrazolo[3,4-c]pyridin-2-yl)(6-ethyl-1,2,3,4-tetrahydroquinolin-4-yl)methanone], the figure is 0.02 µM; as for `CCc1ccc2c(c1)C(C(=O)n1nc3c(c1N)CCN(S(C)(=O)=O)C3)CCN2` (single isomer, unassigned) [Example 33, (R*)-(3-amino-6-(methylsulfonyl)-4,5,6,7-tetrahydropyrazolo[3,4-c]pyridin-2-yl)(6-ethyl-1,2,3,4-tetrahydroquinolin-4-yl)methanone], 10 µM; as for `Cc1cccc2c1NCCC2C(=O)n1nc2c(c1N)CCN(S(C)(=O)=O)C2` (single isomer, unassigned) [Example 36, (R*)-(3-amino-6-(methylsulfonyl)-4,5,6,7-tetrahydropyrazolo[3,4-c]pyridin-2-yl)(8-methyl-1,2,3,4-tetrahydroquinolin-4-yl)methanone], 17 µM. The figure for `Cc1cc(F)cc2c1NCCC2C(=O)n1nc2c(c1N)CCN(S(C)(=O)=O)C2` (single isomer, unassigned) [Example 54, (R*)-(3-amino-6-(methylsulfonyl)-4,5,6,7-tetrahydropyrazolo[3,4-c]pyridin-2-yl)(6-fluoro-8-methyl-1,2,3,4-tetrahydroquinolin-4-yl)methanone] is 2.5 µM; for `CS(=O)(=O)N1CCc2c(nn(C(=O)C3CCNc4c(Cl)cccc43)c2N)C1` (single isomer, unassigned) [Example 59, (R*)-(3-amino-6-(methylsulfonyl)-4,5,6,7-tetrahydropyrazolo[3,4-c]pyridin-2-yl)(8-chloro-1,2,3,4-tetrahydroquinolin-4-yl)methanone] it is 35 µM. `COc1cccc2c1NCCC2C(=O)n1nc2c(c1N)CCN(S(C)(=O)=O)C2` (single isomer, unassigned) [Example 64, (R*)-(3-amino-6-(methylsulfonyl)-4,5,6,7-tetrahydropyrazolo[3,4-c]pyridin-2-yl)(8-methoxy-1,2,3,4-tetrahydroquinolin-4-yl)methanone]: the concentration for half-maximal inhibition (IC50) is 35 µM.

As to `CCc1cc(C)c2c(c1)C(C(=O)n1nc3c(c1N)CCN(S(C)(=O)=O)C3)CCN2` (single isomer, unassigned) [Example 70, (3-amino-6-(methylsulfonyl)-4,5,6,7-tetrahydropyrazolo[3,4-c]pyridin-2-yl)((R*)-6-ethyl-8-methyl-1,2,3,4-tetrahydroquinolin-4-yl)methanone], the concentration for half-maximal inhibition (IC50) came to 5 µM. The figure for `Nc1c2c(nn1C(=O)C1CCNc3c(Cl)cccc31)CNCC2` (single isomer, unassigned) [Example 72, (S*)-(3-amino-4,5,6,7-tetrahydropyrazolo[3,4-c]pyridin-2-yl)(8-chloro-1,2,3,4-tetrahydroquinolin-4-yl)methanone] is 0.07 µM.

Turning to `Nc1c2c(nn1C(=O)C1CCNc3c(Cl)cccc31)CNCC2` (single isomer, unassigned) [Example 73, (R*)-(3-amino-4,5,6,7-tetrahydropyrazolo[3,4-c]pyridin-2-yl)(8-chloro-1,2,3,4-tetrahydroquinolin-4-yl)methanone], the IC50 worked out at 7 µM. The figure for `Cc1cc(F)cc2c1NCCC2C(=O)n1nc2c(c1N)CCOC2` (single isomer, unassigned) [Example 77, (R*)-(3-amino-4,5-dihydropyrano[3,4-c]pyrazol-2(7H)-yl)(6-fluoro-8-methyl-1,2,3,4-tetrahydroquinolin-4-yl)methanone] is 70 µM; for `Cc1cccc2c1NCCC2C(=O)n1nc2c(c1N)CCN(S(C)(=O)=O)C2C` (single isomer, unassigned) [Example 78, (3-amino-7-methyl-6-(methylsulfonyl)-4,5,6,7-tetrahydropyrazolo[3,4-c]pyridin-2-yl)(8-methyl-1,2,3,4-tetrahydroquinolin-4-yl)methanone] it is over 80 µM; for `Cc1cccc2c1NCCC2C(=O)n1nc2c(c1N)CCN(S(C)(=O)=O)C2C` (single isomer, unassigned) [Example 79, (3-amino-7-methyl-6-(methylsulfonyl)-4,5,6,7-tetrahydropyrazolo[3,4-c]pyridin-2-yl)(8-methyl-1,2,3,4-tetrahydroquinolin-4-yl)methanone] it is 3 µM. The figure for `Cc1cc(F)cc2c1NCC[C@@H]2C(=O)n1nc2c(c1N)CNCC2` (single isomer, unassigned) [Example 82, (S*)-(3-amino-4,5,6,7-tetrahydropyrazolo[4,3-c]pyridin-2-yl)(6-fluoro-8-methyl-1,2,3,4-tetrahydroquinolin-4-yl)methanone] is 0.07 µM; for `CS(=O)(=O)N1CCc2c(nn(C(=O)C3CCCc4[nH]c(Cl)cc43)c2N)C1` (single isomer, unassigned) [Example 132, (R*)-(3-amino-6-(methylsulfonyl)-4,5,6,7-tetrahydro-pyrazolo[3,4-c]pyridin-2-yl)(2-chloro-4,5,6,7-tetrahydro-1H-indol-4-yl)methanone] it is 3 µM; for `CS(=O)(=O)N1CCc2c(nn(C(=O)[C@@H]3CCNc4ccccc43)c2N)C1` (single isomer, unassigned) [Example 134, (R*)-(3-amino-6-(methylsulfonyl)-4,5,6,7-tetrahydro-pyrazolo[3,4-c]pyridin-2-yl)(1,2,3,4-tetrahydro-quinolin-4-yl)methanone] it is 28 µM. As for `Nc1c2c(nn1C(=O)[C@@H]1CCNc3ccc(F)cc31)CNCC2` (single isomer, unassigned) [Example 147, (R*)-(3-amino-4,5,6,7-tetrahydro-pyrazolo[3,4-c]pyridin-2-yl)(6-fluoro-1,2,3,4-tetrahydro-quinolin-4-yl)methanone], the figure is 10 µM; as for `CCN1CCc2c(nn(C(=O)[C@@H]3CCNc4ccc(F)cc43)c2N)C1` (single isomer, unassigned) [Example 166, (R*)-(3-amino-6-ethyl-4,5,6,7-tetrahydro-pyrazolo[3,4-c]pyridin-2-yl)(6-fluoro-1,2,3,4-tetrahydro-quinolin-4-yl)methanone], 10 µM.

In turn, `CCN1CCc2c(nn(C(=O)[C@@H]3CCNc4c(C)cc(F)cc43)c2N)C1` (single isomer, unassigned) [Example 171, (R*)-(3-amino-6-ethyl-4,5,6,7-tetrahydro-pyrazolo[3,4-c]pyridin-2-yl)(6-fluoro-8-methyl-1,2,3,4-tetrahydro-quinolin-4-yl)methanone] displayed a 50% inhibitory concentration (IC50) of 4.5 µM.

In the case of `CCN1CCc2c(nn(C(=O)[C@@H]3CCNc4c(C)cccc43)c2N)C1` (single isomer, unassigned) [Example 174, (R*)-(3-amino-6-ethyl-4,5,6,7-tetrahydro-pyrazolo[3,4-c]pyridin-2-yl)(8-methyl-1,2,3,4-tetrahydro-quinolin-4-yl)methanone], the midpoint of inhibition, the IC50, lay at 8 µM.
